Source: patent US20230391817A1, “5ALPHA-HYDROXY-6BETA-[2-(1-H-IMIDAZOL-4-YL)-ETHYLAMINO]-CHOLESTAN-3BETA-OL ANALOGUES AND PHARMACEUTICAL COMPOSITIONS COMPRISING SAME FOR USE IN THE TREATMENT OF CANCER” (priority 2020, published 2023)

Assays:
[1] = system: murine 4T1 mammary tumor cells; test: Cell viability of 4T1 cells, CellTox Green Cytotoxicity Assay; type: cell-based; details: Mus musculus, 4T1, Green Cytotoxicity Assay, 48 h
Description: (§1) Cell viability tests were performed on murine 4T1 mammary tumor cells characterized as triple negative (HER2-, ER-, PR-).
(§2) For this experiment, a cell culture medium was prepared. The culture medium consisted of Dulbecco's Modified Eagle Medium (DMEM, sold by Westburg as LO BE12-604F), comprising 4.5 g/L glucose with L-glutamine, to which 10% fetal calf serum (FCS) and 50 U/ml penicillin/streptomycin are added. The 4T1 cells were introduced into this culture medium.
(§3) 96-well plates were seeded with 2000 4T1 cells per well. After 72 hours (h) of culture under normal condition, i.e. in an incubator at 37° C. at […], the 4T1 cells were treated for 48 h with DX101, DX103, DX111, DX123, DX125, DX127 and DX129 at 100 nM, 1 μM, 2.5 μM and 10 μM. A control condition (CTL) is also performed in parallel using the previously described protocol without treatment with the molecules DX101, DX103, DX111, DX123, DX125, DX127 or DX129.
For the third method, the percentage viability is determined using the CellTox Green Cytotoxicity Assay kit (Promega). This assay measures cell death via a change in membrane integrity. […] Consequently, the higher the fluorescence in the wells, the greater the cell death. […] The percentage of cell death is determined using the 100% cell death control (made from untreated cells incubated in the presence of the lysis solution for 30 minutes at 37° C. prior to the addition of Celltox green reagent), and the cell viability in each well is then deduced from this percentage. The IC50 is then determined as explained previously.

[2] = system: murine 4T1 mammary tumor cells; test: Cell viability of 4T1 cells, LDH; type: cell-based; details: Mus musculus, 4T1, LDH, 48 h
Description: as §1, §2, §3
For the second method, the percentage of viability is determined by assaying the activity of the enzyme LDH (lactate dehydrogenase) in cell supernatants using the non radioactive cytotoxicity assay kit (Promega). LDH is an enzyme released in the supernatant of dead cells. The higher the LDH activity in the supernatant, the greater the cell death. In this enzyme assay, the LDH released converts a violet tetrazolium salt to a red colored formazan, absorbing at 490 nm. The intensity of the red color is proportional to the number of dead cells. After 48 h of treatment, the supernatants are transferred to a new 96-well plate and incubated for 30 minutes in the presence of substrate mix at room temperature. The reaction is stopped with stop solution reagent and the absorbance is determined at 490 nm. The percentage of cell death is determined here using a 100% maximum LDH activity control (made from untreated cells incubated in the presence of lysis solution for 45 minutes at 37° C. just prior to addition of the substrate mix), and the cell viability in each well is then deduced from this percentage. The IC50 is then determined as explained in the preceding paragraph.

[3] = Oral pharmacokinetic study in rat, LC/MS assay in plasma (Examples 21-24); type: in vivo; details: in vivo, po, 50 mg/kg
Description: The following study is an LC/MS assay in plasma of the various molecules over 3 days (11 measurement points in the end). The graphs are always presented in comparison with DX101 which is the reference.
Plasma sampling at 0 (without injection), 5, 10, 15, 30 min, 1 h, 4 h, 8 h, 24 h, 48 h, 72 h (11 points)

[4] = system: murine 4T1 mammary tumor cells; test: Cell viability of 4T1 cells, MTT; type: cell-based; details: for IC50: Mus musculus, 4T1, MTT, 48 h; for cytotoxic activity compared with DX101: 4T1, Tables 1a, 1b and 1c (MTT, LDH, Green Cytotoxicity Assay)
Description: as §1, §2, §3
(§4) The cell viability is measured by three different methods. For the first method, MTT labeling is performed at 48 hours. This test is based on the use of the tetrazolium salt MTT (3-(4,5-dimethylthiazol-2-yl)-2,5-diphenyltetrazolium bromide). Tetrazolium is reduced by mitochondrial succinate dehydrogenase in active live cells to formazan, a purple colored precipitate. The amount of precipitate formed is proportional to the amount of live cells but also to the metabolic activity of each cell. Thus, a simple determination of the optical density at 550 nm by spectroscopy makes it possible to determine the relative amount of live and metabolically active cells. After 48 hours, the medium is aspirated, and the cells are incubated with MTT (0.5 mg/ml in culture medium) for about 3 hours. The MTT solution is aspirated and the purple crystals are dissolved in dimethyl sulfoxide (DMSO). The OD (optical density) is measured at 550 nm. The percentage of viability is then determined in each well against the CTL and the IC50 (concentration at which 50% of cells remain alive) is determined for each molecule with the Prism software using a nonlinear regression curve (log(inhibitor) vs. Response).

[5] = system: BT-474 human mammary tumor cells; test: Cell viability of BT-474 cells, MTT; type: cell-based; details: for Mean LogIC50 (±SEM) / IC50: BT-474, MTT, 48 h; for Mean LogIC50 (±SEM): log of IC50 in μM; for activity compared with DX101: BT-474, Tables 2a, 2b and 2c (MTT, LDH, Trypan Blue); for IC50: Homo sapiens
Description: as §4
(§5) Cell viability tests were also performed on BT-474 human mammary tumor cells (characterized as triple positive HER2+, ER+, PR+). The BT-474 cells were in a cell culture medium identical to the previous example and seeded in 24-well plates at 70 000 cells per well for cell viability determination using trypan blue, or in 96-well plates at 13 000 cells per well for cell viability determination using the MTT or LDH assay. After 96 hours (h) of culture under normal conditions, i.e. in an incubator at 37° C. with […], BT-474 cells were treated for 48 h with DX101, DX103, DX105, DX111, DX123 and DX127 at 100 nM, 1 μM, 2.5 μM and 10 μM. A control is also performed using the protocol described previously without treatment with DX101, DX103, DX105, DX111, DX123 and DX127.
(§6) After a 10-minute trypsin digestion at 37° C., the cell survival was also quantified by means of a trypan blue test with automatic counting using the Biorad TC20 machine (TC20™ Automated Cell Counter). The trypan blue test is based on the integrity of cell membranes, which is disrupted in the dead cells. Trypan blue stains dead cells blue. The Biorad TC20 cell counter counts the proportion of blue and non-blue cells, and reports the percentage of cells. The percentage of viability is then determined in each well relative to the untreated cells and the IC50 is determined as explained in the preceding example. Also, the percentage viability of the BT-474 cells was determined using the MTT and LDH assay, performed as described in the preceding example.

[6] = system: BT-474 human mammary tumor cells; test: Cell viability of BT-474 cells, trypan blue; type: cell-based; details: BT-474, Trypan Blue, 48 h; for Mean LogIC50 (±SEM): log of IC50 in μM; for IC50: Homo sapiens
Description: as §5, §6

[7] = biological target: T1, Cholesterol Epoxide Hydrolase (ChEH) (Homo sapiens, UniProt Q15125+Q9UBM7); test: Cholesterol Epoxide Hydrolase (ChEH) activity in MCF-7 cells, [14C]5,6α-EC metabolism by TLC; type: cell-based; details: 1 μM, 24 h, [14C]5,6α-EC 0.6 μM
T1 construct: endogenous in cells; host or cells: MCF-7
T1 sequence (Q15125 whole entry): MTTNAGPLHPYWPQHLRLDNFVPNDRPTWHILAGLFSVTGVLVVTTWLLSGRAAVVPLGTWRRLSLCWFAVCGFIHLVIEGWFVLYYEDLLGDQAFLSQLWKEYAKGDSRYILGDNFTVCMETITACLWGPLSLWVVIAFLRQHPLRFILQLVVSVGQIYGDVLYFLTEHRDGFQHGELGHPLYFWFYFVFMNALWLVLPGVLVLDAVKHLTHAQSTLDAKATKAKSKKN
T1 sequence (Q9UBM7 whole entry): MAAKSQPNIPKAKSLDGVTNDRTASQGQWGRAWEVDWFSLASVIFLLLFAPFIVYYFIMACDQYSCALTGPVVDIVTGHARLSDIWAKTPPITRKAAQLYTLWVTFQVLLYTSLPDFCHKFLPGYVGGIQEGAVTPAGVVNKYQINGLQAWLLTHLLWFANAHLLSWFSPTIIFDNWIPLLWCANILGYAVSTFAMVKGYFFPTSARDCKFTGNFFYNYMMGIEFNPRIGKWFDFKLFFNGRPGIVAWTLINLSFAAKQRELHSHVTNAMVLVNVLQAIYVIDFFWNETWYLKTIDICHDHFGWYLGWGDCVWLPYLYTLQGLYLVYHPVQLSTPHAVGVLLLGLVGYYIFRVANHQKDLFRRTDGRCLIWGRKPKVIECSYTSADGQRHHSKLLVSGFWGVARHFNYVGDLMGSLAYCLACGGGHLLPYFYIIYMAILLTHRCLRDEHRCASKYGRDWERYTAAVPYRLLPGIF
Source text: The compounds 5,6α-epoxycholesterol (5,6α-EC) and 5,6p-epoxycholesterol (5,6p-EC) are oxysterols involved in the anticancer pharmacology of tamoxifen, a widely used antitumor drug. Both are metabolized to cholestane-3β,5α,6β-triol (CT) by the enzyme cholesterol-5,6-epoxide hydrolase (ChEH), and CT is metabolized by the enzyme HSD11B2 (11β-hydroxysteroid dehydrogenase 2) to 6-oxocholestane-3β,5α-diol (OCDO), a tumor-promoting oncosterone.
MCF-7 cells are in a cell culture medium identical to that of Example 5 and are seeded in 6-well plates at 150 000 cells per well with three wells per treatment condition. […] Tamoxifen is used as a positive control for 3α-fluoro-5α-hydroxy-6β-[2-(1H-imidazol-4-yl)ethylamino]cholestane and 5α-hydroxy-6β-[2-(1H-imidazol-4-yl)ethylamino]cholestan-3β-ol (1 μM for all molecules).
After 24 hours of treatment, the media are collected and lipid extracts are prepared from the cell pellets by extraction with 100 μL of chloroform, 400 μL of methanol, and 300 μL of water.
The lipid extracts are analyzed by thin layer chromatography (TLC) using ethyl acetate (EtOAc) as eluent. The analysis is performed with a plate reader and then by autoradiography.

[8] = log of IC50 in μM, read-out: Mean LogIC50 (±SEM) (converted)

Structure (SMILES)	IC50 [1, 8] [µM]	IC50 ([1]; read-out: IC50) [µM]	IC50 [2, 8] [µM]	IC50 ([2]; read-out: IC50) [µM]	Area under the curve [3]	Max concentration [3] [nM]	Time for Cmax [3] [min]	bioavailability / extent of absorption compared with DX101 [3]	speed of absorption compared with DX101 [3]	IC50 [4, 8] [µM]	IC50 ([4]; read-out: IC50) [µM]	Mean LogIC50 (±SEM) [5]	activity compared with DX101 [5]	IC50 [5] [µM]	Mean LogIC50 (±SEM) [6]	IC50 [6] [µM]	maximum concentration compared with DX101 [3]	cytotoxic activity compared with DX101 [4]	inhibition of ChEH activity [7]
CO[C@H]1CC[C@]2(C)[C@H]3CC[C@]4(C)[C@@H]([C@H](C)CCCC(C)C)CC[C@H]4[C@@H]3C[C@@H](NCCc3c[nH]cn3)[C@@]2(O)C1 [DX103, 3β-methoxy-5α-hydroxy-6β-[2-(1H-imidazol-4-yl)ethylamino]cholestane]	2.63	2.63	4.37	4.4	105351	135	240	slightly lower bioavailability	faster absorption	3.16	3.16	0.85 ± 0.05	similar	7.08	0.42 ± 0.25	2.62	–	–	–
CCO[C@H]1CC[C@]2(C)[C@H]3CC[C@]4(C)[C@@H]([C@H](C)CCCC(C)C)CC[C@H]4[C@@H]3C[C@@H](NCCc3c[nH]cn3)[C@@]2(O)C1 [DX105, 3β-ethoxy-5α-hydroxy-6β-[2-(1H-imidazol-4-yl)ethylamino]cholestane]	–	–	–	–	145590	197	240	equivalent to (or even slightly higher than)	much faster absorption	–	–	0.86 ± 0.04	similar	4.08	0.55 ± 0.14	3.57	much higher maximum concentration	–	–
CCCCCCCCO[C@H]1CC[C@]2(C)[C@H]3CC[C@]4(C)[C@@H]([C@H](C)CCCC(C)C)CC[C@H]4[C@@H]3C[C@@H](NCCc3c[nH]cn3)[C@@]2(O)C1 [DX115, 3β-octanoxy-5α-hydroxy-6β-[2-(1H-imidazol-4-yl)ethylamino]cholestane]	25.1	> 10	17.4	> 10	–	–	–	–	–	37.2	> 10	–	–	–	–	–	–	–	–
CC(C)CCC[C@@H](C)[C@H]1CC[C@H]2[C@@H]3C[C@@H](NCCc4c[nH]cn4)[C@@]4(O)C[C@@H](N=[N+]=[N-])CC[C@]4(C)[C@H]3CC[C@]12C [DX123, 3β-azido-5α-hydroxy-6β-[2-(1H-imidazol-4-yl)ethylamino]cholestane]	2.09	> 10	1.45	1.45	6711	721	4	twofold higher bioavailability	–	5.89	5.94	–	tends to be superior	–	–	–	–	tendency to be higher	–
CC(C)CCC[C@@H](C)[C@H]1CC[C@H]2[C@@H]3C[C@@H](NCCc4c[nH]cn4)[C@@]4(O)C[C@@H](N)CC[C@]4(C)[C@H]3CC[C@]12C [DX125, 3β-amino-5α-hydroxy-6β-[2-(1H-imidazol-4-yl)ethylamino]cholestane]	22.4	> 10	36.3	> 10	–	–	–	–	–	145	> 10	–	–	–	–	–	–	lower	–
CC(=O)N[C@H]1CC[C@]2(C)[C@H]3CC[C@]4(C)[C@@H]([C@H](C)CCCC(C)C)CC[C@H]4[C@@H]3C[C@@H](NCCc3c[nH]cn3)[C@@]2(O)C1 [DX127, 3β-acetamido-5α-hydroxy-6β-[2-(1H-imidazol-4-yl)ethylamino]cholestane]	11	10.9	7.08	7.09	–	–	–	–	–	11.7	11.7	–	similar	–	–	–	–	lower	–
CC(C)CCC[C@@H](C)[C@H]1CC[C@H]2[C@@H]3C[C@@H](NCCc4c[nH]cn4)[C@@]4(O)C[C@@H](S(C)(=O)=O)CC[C@]4(C)[C@H]3CC[C@]12C [DX129, 3β-methylsulfonyl-5α-hydroxy-6β-[2-(1H-imidazol-4-yl)ethylamino]cholestane]	16.2	16.2	3.89	3.87	–	–	–	–	–	15.1	15.1	–	–	–	–	–	–	lower	–
CC/C(=C(\c1ccccc1)c1ccc(OCCN(C)C)cc1)c1ccccc1 [tamoxifen, reference compound]	–	–	–	–	–	–	–	–	–	–	–	–	–	–	–	–	–	–	total inhibition
